According to patent US20200030269A1, “ANIMAL FEED COMPOSITIONS OF ABSCISIC ACID” (Valent BioSciences LLC, priority 2010, published 2020):
Where “and” joins values, the source holds several entries; their conditions need not be identical. Identical values can stand only once.

How the values were obtained:
Assay type in all cases: in vivo
Male Cobb 500 chickens [1] = assay: Example 1 broiler feeding study: bird weights and feed conversion ratios; conditions: for Adjusted Feed/Gain Ratio, mean / Bird Weight, mean / Feed/Gain Ratio, mean: 5 ppm S-ABA in feed, dirty litter
Description: (§1) Male Cobb 500 chickens were fed different levels of S-ABA supplemented into starter, grower, and finisher feed diets for their entire 42 day commercial life cycle. On day 43, samples of chickens (sometimes referred to as “birds”) from each treatment were processed.
(§2) The starter, grower, and finisher basal diets represented standard commercial broiler diets. The starter and grower diets contained Salinomycin (a coccidiostat) at 40 grams/ton. The basal diets and final treatment diets were prepared using a 500 or 4,000 pound capacity vertical mixer or a 14,000 pound capacity horizontal mixer. After correcting for percent purity of S-ABA in the S-ABA dry powder, S-ABA was added to the basal diets at concentrations of 5, 50, or 500 ppm (4.6, 46, or 455 grams of S-ABA/ton). Control treatments included (1) commercial diet only and (2) commercial diet supplemented with antibiotics (bacitracin methylene disalicylate (BMD), and STAFAC® virginiamycin (hereinafter “Stafac”). STAFAC is a registered trademark of Phibro Animal Health Corporation). All feed diets were pelleted at ˜65° C. or below.
(§3) A 90-pen test facility was divided into 10 blocks containing 9 pens per block. Treatments were assigned to the pens using a complete randomized block design. Birds were assigned to the pens randomly. Specific treatment groups were as follows:
Feed was provided ad libitum throughout the study via one handing, ˜17-inch diameter tube feeder per pen. Chick feeder trays were placed in each pen for approximately the first 4 days. Feed added and removed from pens was weighed and recorded from day 0 to day 42. Diet changes were conducted at the same time for all pens. The feeding period for each diet was as shown below:
Birds were weighed by pen at 0, 7, 14, 21, 28, 35, and 42 days of age. The feed remaining in each pen was weighed and recorded on study day 0, 7, 14, 21, 28, 35, and 42 days of age. The feed intake during days 0-7, 0-14, 0-21, 0-28, 0-35, and 0-42 was calculated.
Performance data was summarized by average weight per bird at each body weights measurement period. The average feed conversion was calculated for each respective body weight period using the total feed consumption in a pen divided by the total weight of surviving birds (i.e. days 0-7, 0-14, 0-21, etc.). Adjusted feed conversion was calculated using the total feed consumption in a pen divided by the total weight of surviving birds and weight of birds that died or were removed from that pen.

Male Cobb 500 chickens [2] = assay: Example 1 broiler feeding study: cumulative bird mortality after 42 days
Description: as §1, §2, §3
(§4) Starting on study day 0, any bird found dead or needing to be removed and sacrificed was weighed and necropsied. The probable cause of death and necropsy findings were recorded.

Male Cobb 500 chickens [3] = assay: Example 1 broiler feeding study: digestive tract weights at processing on day 43; conditions: for Digestive Tract Weights, Mean Weight: dirty litter, day 43
Description: as §1, §2, §3
Four blocks (9 pens/block) were selected at random from each treatment. On day 42 all birds in the selected blocks were individually wing banded with a unique number. Prior to processing the birds were fasted for approximately 12 hours. Immediately after processing on day 43, digestive tract weights and Bursa of Fabricius organ weights were measured.

[4] = test system: Male and female Cobb 500 chickens; assay: Example 2 broiler feeding study: cumulative bird mortality after 42 days
Description: Male and female Cobb 500 chickens were fed different levels of S-ABA supplemented into starter, grower, and finisher feed diets for their entire 42 days commercial life cycle.
The starter, grower, and finisher basal diets represented standard commercial broiler diets. The starter and grower diets contained Salinomycin (a coccidiostat) at 40 grams/ton. The basal diets and final treatment diets were prepared using a 500 or 4,000 pound capacity vertical mixer or a 14,000 pound capacity horizontal mixer. After correcting for percent purity of S-ABA in the S-ABA dry powder, S-ABA was added to the basal diets at concentrations of 2.5, 5.0, or 7.5 ppm (2.3, 4.6, or 6.8 grams of S-ABA/ton). Control treatments included (1) commercial diet only and (2) commercial diet supplemented with antibiotics (bacitracin methylene disalicylate and Stafac). All feed diets were pelleted at ˜65° C. or below.
A 108-pen test facility was divided into 18 blocks containing 6 pens per block. Treatments were assigned to the pens using a complete randomized block design. Birds were assigned to the pens randomly. Specific treatment groups were as follows:
as §4

[5] = 5 ppm S-ABA in commercial feed diet versus control 1
[6] = commercial feed diet plus 5 ppm S-ABA, dirty litter, 42 days

Compound: CC1=CC(=O)CC(C)(C)[C@@]1(O)/C=C/C(C)=C\C(=O)O [S-ABA, (S)-(+)-abscisic acid]
- bird growth (weights) compared to the commercial feed diet (control 1) (Male Cobb 500 chickens [1]; 5 ppm S-ABA in commercial feed): increased bird growth (weights)
- lowering of adjusted feed conversion ratios (corrected for number of surviving birds) (Male Cobb 500 chickens [1]; [5]): 1-2 points
- reduction of feed conversion ratios (Male Cobb 500 chickens [1]; [5]): 1-4 points
- Adjusted Feed/Gain Ratio, mean (Male Cobb 500 chickens [1]; Day 7): 1.4093
- Bird Weight, mean (Male Cobb 500 chickens [1]; Day 7): 0.1445 kg
- Feed/Gain Ratio, mean (Male Cobb 500 chickens [1]; Day 7): 1.4093
- Adjusted Feed/Gain Ratio, mean (Male Cobb 500 chickens [1]; Day 14): 1.2854
- Bird Weight, mean (Male Cobb 500 chickens [1]; Day 14): 0.3873 kg
- Feed/Gain Ratio, mean (Male Cobb 500 chickens [1]; Day 14): 1.3400
- Adjusted Feed/Gain Ratio, mean (Male Cobb 500 chickens [1]; Day 21): 1.3842
- Bird Weight, mean (Male Cobb 500 chickens [1]; Day 21): 0.7899 kg
- Feed/Gain Ratio, mean (Male Cobb 500 chickens [1]; Day 21): 1.4137
- Adjusted Feed/Gain Ratio, mean (Male Cobb 500 chickens [1]; Day 28): 1.4517
- Bird Weight, mean (Male Cobb 500 chickens [1]; Day 28): 1.4236 kg
- Feed/Gain Ratio, mean (Male Cobb 500 chickens [1]; Day 28): 1.4584
- Adjusted Feed/Gain Ratio, mean (Male Cobb 500 chickens [1]; Day 35): 1.5610
- Bird Weight, mean (Male Cobb 500 chickens [1]; Day 35): 2.0919 kg
- Feed/Gain Ratio, mean (Male Cobb 500 chickens [1]; Day 35): 1.5731
- Adjusted Feed/Gain Ratio, mean (Male Cobb 500 chickens [1]; Day 42): 1.6691
- Bird Weight, mean (Male Cobb 500 chickens [1]; Day 42): 2.7565 kg
- Feed/Gain Ratio, mean (Male Cobb 500 chickens [1]; Day 42): 1.6861
- bird mortality compared to the control treatments (Male Cobb 500 chickens [2]; 5 ppm S-ABA in commercial feed diets, versus control 1 and BMD/Stafac control 2): significantly (P=0.05) lower bird mortality
- Cumulative Bird Mortality After 42 Days: Died (Male Cobb 500 chickens [2]; [6]): 0
- Cumulative Bird Mortality After 42 Days: Lived (Male Cobb 500 chickens [2]; [6]): 200
- weight of digestive tracts compared to the commercial feed diets (control 1 and control 2) (Male Cobb 500 chickens [3]; S-ABA in the feed diet): increases the weight of digestive tracts
- Digestive Tract Weights, Mean Weight (Male Cobb 500 chickens [3]; commercial feed diet plus 5 ppm S-ABA): 86.7 Grams
- Digestive Tract Weights, Mean Weight (Male Cobb 500 chickens [3]; commercial feed diet plus 50 ppm S-ABA): 86.6 Grams
- Digestive Tract Weights, Mean Weight (Male Cobb 500 chickens [3]; commercial feed diet plus 500 ppm S-ABA): 88.4 Grams
- survival rates compared to the commercial feed diet containing bacitracin methylene disalicylate and Stafac ([4]; ABA added to commercial feed diets, 42 days): higher survival rates
- Cumulative Bird Mortality After 42 Days: Mortality ([4]; S-ABA 2.5 ppm in feed, Female, dirty litter): 2.4%
- Cumulative Bird Mortality After 42 Days: Mortality ([4]; S-ABA 2.5 ppm in feed, Male, dirty litter): 4.1%
- Cumulative Bird Mortality After 42 Days: Mortality ([4]; S-ABA 5.0 ppm in feed, Female, dirty litter (two treatment groups)): 0.4% and 1.9%
- Cumulative Bird Mortality After 42 Days: Mortality ([4]; S-ABA 5.0 ppm in feed, Male, dirty litter (two treatment groups)): 2.9% and 3.5%
- Cumulative Bird Mortality After 42 Days: Mortality ([4]; S-ABA 7.5 ppm in feed, Female, dirty litter): 2.2%
- Cumulative Bird Mortality After 42 Days: Mortality ([4]; S-ABA 7.5 ppm in feed, Male, dirty litter): 3.8%
